{"source": "patent US9610350B2", "about": "“Broad spectrum preservation blends” (Arch Personal Care Products, L.P., priority 2009, dated 2017)", "assay_type_in_all_cases": "cell-based", "key": {"[1]": {"tested_on": "mixed Klebsiella pneumoniae (ATCC 4352) and Enterobacter gergoviae (ATCC 33028)", "assay": "CTFA-type challenge test, mixed K. pneumoniae + E. gergoviae inoculum", "details": "Make-up Remover at pH 8.1 with 0.83% Benzyl Alcohol; Challenge #2; 48 Hours"}, "[2]": {"tested_on": "mixed Klebsiella pneumoniae (ATCC 4352) and Enterobacter gergoviae (ATCC 33028)", "assay": "CTFA-type challenge test, mixed K. pneumoniae + E. gergoviae inoculum", "details": "Make-up Remover at pH 8.1 with 0.83% Benzyl Alcohol", "text": "(§1) CTFA Challenge Test Procedure: A challenge protocol similar to the CTFA method was followed to assess efficacy against a broad spectrum of microorganisms. The five separate inocula were: Staphylococcus aureus (ATCC 6538), mixed Pseudomonas aeruginosa (ATCC 9027) and Burkholderia cepacia (ATCC 25416), mixed Klebsiella pneumoniae (ATCC 4352) and Enterobacter gergoviae (ATCC 33028), Candida albicans (ATCC 10231), and a mixture of molds: Aspergillus niger (ATCC 16404) and 2 Penicillium sp. isolated from cosmetic products. Samples (35 grams each) were inoculated with approximately 2,000,000 bacteria per gram or 100,000 yeast cells or mold spores per gram. Individual challenges were prepared from overnight slants of bacteria and yeast cultures and from heavily sporulating mold cultures, 7 to 10 days old. All samples were plated quantitatively for viable organisms after 24 hours and weekly for up to 4 weeks. Samples inoculated with mold spores were also plated after 48 hours. Samples were re-challenged after four weeks (or sooner where appropriate) and the same sampling regime followed.\n(§2) Recommended “Pass” Criteria: CTFA recommends at least a 99.9% reduction of vegetative bacteria and at least a 90% reduction of yeasts and molds within 7 days following each challenge with no increase in count thereafter.\n(§3) The preservative concentrates were added to these formulations to give a final concentration of 1%. […]"}, "[3]": {"tested_on": "mixture of molds: Aspergillus niger (ATCC 16404) and 2 Penicillium sp.", "assay": "CTFA-type challenge test, mixed mold inoculum", "details": "for Colony Forming Units per Gram (CFU/g), Mixed Molds: Make-up Remover at pH 8.1 with 0.83% Benzyl Alcohol", "text": "as §1, §2, §3\nTo determine if the unexpected activity of ECT 4 at high pH (8.1) can be attributed solely to the activity of benzyl alcohol the high pH make-up remover was preserved with 1% ECT4 and with 0.83% benzyl alcohol (equivalent amount found in 1% ECT4)."}, "[4]": {"tested_on": "Staphylococcus aureus (ATCC 6538)", "assay": "CTFA-type challenge test, S. aureus inoculum", "details": "Make-up Remover at pH 8.1 with 0.83% Benzyl Alcohol"}, "[5]": {"tested_on": "mixed Pseudomonas aeruginosa (ATCC 9027) and Burkholderia cepacia (ATCC 25416)", "assay": "CTFA-type challenge test, mixed P. aeruginosa + B. cepacia inoculum", "details": "Make-up Remover at pH 8.1 with 0.83% Benzyl Alcohol; Challenge #2; 48 Hours"}, "[6]": {"tested_on": "mixed Pseudomonas aeruginosa (ATCC 9027) and Burkholderia cepacia (ATCC 25416)", "assay": "CTFA-type challenge test, mixed P. aeruginosa + B. cepacia inoculum", "details": "Make-up Remover at pH 8.1 with 0.83% Benzyl Alcohol", "text": "as §1, §2, §3"}, "[7]": {"tested_on": "Candida albicans (ATCC 10231)", "assay": "CTFA-type challenge test, C. albicans inoculum", "details": "Make-up Remover at pH 8.1 with 0.83% Benzyl Alcohol"}, "[8]": {"details": "High pH Make-up Remover (pH 8.1), 0.83% benzyl alcohol"}}}
{"molecule": "OCc1ccccc1", "note": "[benzyl alcohol]", "values": [{"measurement": "Colony Forming Units per Gram (CFU/g), K. pneumoniae + E. gergoviae", "setting": "[1]", "value": "<10", "unit": "CFU/g"}, {"measurement": "Colony Forming Units per Gram (CFU/g), K. pneumoniae + E. gergoviae", "setting": "[2]; Challenge #1, 7 Days", "value": "<10", "unit": "CFU/g"}, {"measurement": "Colony Forming Units per Gram (CFU/g), K. pneumoniae + E. gergoviae", "setting": "[2]; Challenge #1, 14 Days", "value": "<10", "unit": "CFU/g"}, {"measurement": "Colony Forming Units per Gram (CFU/g), K. pneumoniae + E. gergoviae", "setting": "[2]; Challenge #1, 21 Days", "value": "<10", "unit": "CFU/g"}, {"measurement": "Colony Forming Units per Gram (CFU/g), K. pneumoniae + E. gergoviae", "setting": "[2]; Challenge #1, 24 Hours", "value": "<10", "unit": "CFU/g"}, {"measurement": "Colony Forming Units per Gram (CFU/g), K. pneumoniae + E. gergoviae", "setting": "[2]; Challenge #1, 28 Days", "value": "<10", "unit": "CFU/g"}, {"measurement": "Colony Forming Units per Gram (CFU/g), K. pneumoniae + E. gergoviae", "setting": "[2]; Challenge #2, 7 Days", "value": "<10", "unit": "CFU/g"}, {"measurement": "Colony Forming Units per Gram (CFU/g), K. pneumoniae + E. gergoviae", "setting": "[2]; Challenge #2, 14 Days", "value": "<10", "unit": "CFU/g"}, {"measurement": "Colony Forming Units per Gram (CFU/g), K. pneumoniae + E. gergoviae", "setting": "[2]; Challenge #2, 21 Days", "value": "<10", "unit": "CFU/g"}, {"measurement": "Colony Forming Units per Gram (CFU/g), K. pneumoniae + E. gergoviae", "setting": "[2]; Challenge #2, 28 Days", "value": "<10", "unit": "CFU/g"}, {"measurement": "CTFA recommendations for a minimum of 90% mold reduction in 7 days", "setting": "[3]; [8]", "value": "did not meet CTFA recommendations"}, {"measurement": "Efficacy against the mixed mold challenge", "setting": "[3]; [8]", "value": "not sufficiently efficacious"}, {"measurement": "Colony Forming Units per Gram (CFU/g), Mixed Molds", "setting": "[3]; Challenge #1, 7 Days", "value": "3.0 × 10^4 CFU/g"}, {"measurement": "Colony Forming Units per Gram (CFU/g), Mixed Molds", "setting": "[3]; Challenge #1, 14 Days", "value": "8.0 × 10^4 CFU/g"}, {"measurement": "Colony Forming Units per Gram (CFU/g), Mixed Molds", "setting": "[3]; Challenge #1, 21 Days", "value": "1.5 × 10^4 CFU/g"}, {"measurement": "Colony Forming Units per Gram (CFU/g), Mixed Molds", "setting": "[3]; Challenge #1, 24 Hours", "value": "2.1 × 10^5 CFU/g"}, {"measurement": "Colony Forming Units per Gram (CFU/g), Mixed Molds", "setting": "[3]; Challenge #1, 28 Days", "value": "5.1 × 10^3 CFU/g"}, {"measurement": "Colony Forming Units per Gram (CFU/g), Mixed Molds", "setting": "[3]; Challenge #1, 48 Hours", "value": "1.2 × 10^5 CFU/g"}, {"measurement": "Colony Forming Units per Gram (CFU/g), Mixed Molds", "setting": "[3]; Challenge #2, 7 Days", "value": "3.4 × 10^3 CFU/g"}, {"measurement": "Colony Forming Units per Gram (CFU/g), Mixed Molds", "setting": "[3]; Challenge #2, 14 Days", "value": "3.6 × 10^3 CFU/g"}, {"measurement": "Colony Forming Units per Gram (CFU/g), Mixed Molds", "setting": "[3]; Challenge #2, 21 Days", "value": "9.0 × 10^3 CFU/g"}, {"measurement": "Colony Forming Units per Gram (CFU/g), Mixed Molds", "setting": "[3]; Challenge #2, 28 Days", "value": "4.0 × 10^2 CFU/g"}, {"measurement": "Colony Forming Units per Gram (CFU/g), Mixed Molds", "setting": "[3]; Challenge #2, 48 Hours", "value": "3.8 × 10^3 CFU/g"}, {"measurement": "Colony Forming Units per Gram (CFU/g), S. aureus", "setting": "[4]; Challenge #1, 7 Days", "value": "<10", "unit": "CFU/g"}, {"measurement": "Colony Forming Units per Gram (CFU/g), S. aureus", "setting": "[4]; Challenge #1, 14 Days", "value": "<10", "unit": "CFU/g"}, {"measurement": "Colony Forming Units per Gram (CFU/g), S. aureus", "setting": "[4]; Challenge #1, 21 Days", "value": "<10", "unit": "CFU/g"}, {"measurement": "Colony Forming Units per Gram (CFU/g), S. aureus", "setting": "[4]; Challenge #1, 24 Hours", "value": "<10", "unit": "CFU/g"}, {"measurement": "Colony Forming Units per Gram (CFU/g), S. aureus", "setting": "[4]; Challenge #1, 28 Days", "value": "<10", "unit": "CFU/g"}, {"measurement": "Colony Forming Units per Gram (CFU/g), S. aureus", "setting": "[4]; Challenge #2, 7 Days", "value": "<10", "unit": "CFU/g"}, {"measurement": "Colony Forming Units per Gram (CFU/g), S. aureus", "setting": "[4]; Challenge #2, 14 Days", "value": "<10", "unit": "CFU/g"}, {"measurement": "Colony Forming Units per Gram (CFU/g), S. aureus", "setting": "[4]; Challenge #2, 21 Days", "value": "<10", "unit": "CFU/g"}, {"measurement": "Colony Forming Units per Gram (CFU/g), S. aureus", "setting": "[4]; Challenge #2, 28 Days", "value": "<10", "unit": "CFU/g"}, {"measurement": "Colony Forming Units per Gram (CFU/g), S. aureus", "setting": "[4]; Challenge #2, 48 Hours", "value": "<10", "unit": "CFU/g"}, {"measurement": "Colony Forming Units per Gram (CFU/g), P. aeruginosa + B. cepacia", "setting": "[5]", "value": "<10", "unit": "CFU/g"}, {"measurement": "Colony Forming Units per Gram (CFU/g), P. aeruginosa + B. cepacia", "setting": "[6]; Challenge #1, 7 Days", "value": "<10", "unit": "CFU/g"}, {"measurement": "Colony Forming Units per Gram (CFU/g), P. aeruginosa + B. cepacia", "setting": "[6]; Challenge #1, 14 Days", "value": "<10", "unit": "CFU/g"}, {"measurement": "Colony Forming Units per Gram (CFU/g), P. aeruginosa + B. cepacia", "setting": "[6]; Challenge #1, 21 Days", "value": "<10", "unit": "CFU/g"}, {"measurement": "Colony Forming Units per Gram (CFU/g), P. aeruginosa + B. cepacia", "setting": "[6]; Challenge #1, 24 Hours", "value": "<10", "unit": "CFU/g"}, {"measurement": "Colony Forming Units per Gram (CFU/g), P. aeruginosa + B. cepacia", "setting": "[6]; Challenge #1, 28 Days", "value": "<10", "unit": "CFU/g"}, {"measurement": "Colony Forming Units per Gram (CFU/g), P. aeruginosa + B. cepacia", "setting": "[6]; Challenge #2, 7 Days", "value": "<10", "unit": "CFU/g"}, {"measurement": "Colony Forming Units per Gram (CFU/g), P. aeruginosa + B. cepacia", "setting": "[6]; Challenge #2, 14 Days", "value": "<10", "unit": "CFU/g"}, {"measurement": "Colony Forming Units per Gram (CFU/g), P. aeruginosa + B. cepacia", "setting": "[6]; Challenge #2, 21 Days", "value": "<10", "unit": "CFU/g"}, {"measurement": "Colony Forming Units per Gram (CFU/g), P. aeruginosa + B. cepacia", "setting": "[6]; Challenge #2, 28 Days", "value": "<10", "unit": "CFU/g"}, {"measurement": "Colony Forming Units per Gram (CFU/g), C. albicans", "setting": "[7]; Challenge #1, 7 Days", "value": "1.6 × 10^2 CFU/g"}, {"measurement": "Colony Forming Units per Gram (CFU/g), C. albicans", "setting": "[7]; Challenge #1, 14 Days", "value": "<10", "unit": "CFU/g"}, {"measurement": "Colony Forming Units per Gram (CFU/g), C. albicans", "setting": "[7]; Challenge #1, 21 Days", "value": "<10", "unit": "CFU/g"}, {"measurement": "Colony Forming Units per Gram (CFU/g), C. albicans", "setting": "[7]; Challenge #1, 24 Hours", "value": "3.1 × 10^4 CFU/g"}, {"measurement": "Colony Forming Units per Gram (CFU/g), C. albicans", "setting": "[7]; Challenge #1, 28 Days", "value": "<10", "unit": "CFU/g"}, {"measurement": "Colony Forming Units per Gram (CFU/g), C. albicans", "setting": "[7]; Challenge #2, 7 Days", "value": "<10", "unit": "CFU/g"}, {"measurement": "Colony Forming Units per Gram (CFU/g), C. albicans", "setting": "[7]; Challenge #2, 14 Days", "value": "<10", "unit": "CFU/g"}, {"measurement": "Colony Forming Units per Gram (CFU/g), C. albicans", "setting": "[7]; Challenge #2, 21 Days", "value": "<10", "unit": "CFU/g"}, {"measurement": "Colony Forming Units per Gram (CFU/g), C. albicans", "setting": "[7]; Challenge #2, 28 Days", "value": "<10", "unit": "CFU/g"}, {"measurement": "Colony Forming Units per Gram (CFU/g), C. albicans", "setting": "[7]; Challenge #2, 48 Hours", "value": "<1.0 × 10^2 CFU/g"}]}
